Key:
[1] = Removal test of heavy metals of active ingredients (pig skin, ICP-MS): Cd; details: contaminated pig skin
Protocol: (§1) (1) Preparation of Heavy Metal Contamination Sources and Pig Skin Samples
(§2) A pig was slaughtered, flayed and the bristle was shaved. The pig skin was cut to prepare 5*5 cm size of skin samples respectively.
(§3) The said skin samples were cleanly wiped with wet gauze, and then, added to 50 ml of methanol and extracted by shaking with ultrasonic for 60 min. 50 ml of methanol was further added and mixed. The pig skin samples were removed from the extracted solutions to prepare the test solutions.
(§4) The test solutions were analyzed for heavy metal components using an inductively coupled plasma mass spectrometer (ICP-MS, Xseries™ 2, Thermo Fisher Scientific, UK).

human skin = assay: Skin irritation test of active ingredient (patch method, CTFA guidelines); type: in vivo; design: key to Degree of irritation: 0–0.1 none, 0.11–0.3 weak, 0.31–0.5 moderate, ≥0.51 strong irritation; details: 20 people, patch 24 hours; for Test result(number of subject) (+): (+): Apparent reddening than periphery; for Test result(number of subject) (++): (++): More reddened and swollen than periphery; for Test result(number of subject) (±): (±): slightly reddish than the periphery; for Test result(number of subject) (−): (−): No erythema or particularly no symptoms
Protocol: A total of 20 people (10 men and 10 women in their 20 s and 30 s) were tested for skin irritation using the patch method according to the guidelines of CTFA (The Cosmetic, Toiletry & Fragrance Association, Inc. Washington, D.C.).
A filter paper disk was placed in an 8 mm diameter, 10 panels of pin chamber.
After 24 hours, the pin chamber was removed, and skin conditions were visually observed.
[Criteria for Skin Irritation]
(−): No erythema or particularly no symptoms; (±): slightly reddish than the periphery; (+): Apparent reddening than periphery; (++): More reddened and swollen than periphery.
[Grade for Skin Irritation]
Degree of irritation 0-0.1: Grade I (unstimulated);
Degree of irritation 0.11-0.3: Grade II (weakly stimulated);
Degree of irritation 0.31-0.5: Grade III (moderately stimulated);
Degree of irritation 0.51 or more: Grade IV (strongly stimulated)

[2] = Formaldehyde removing ability test (GC); details: 2.0% formaldehyde solution; for Area (mAU*min) 30 min: formaldehyde GC area after 30 min; for Area (mAU*min) 30 min / Area (mAU*min) 180 min: 3 molar equivalents, room temperature; for Area (mAU*min) 180 min: formaldehyde GC area after 180 min; for Area (mAU*min) Initial: formaldehyde GC area, initial state, 3 molar equivalents of compound
[3] = Removal test of heavy metals of active ingredients (pig skin, ICP-MS): Pb; details: contaminated pig skin
Protocol: as §1, §2, §3, §4

[4] = Removal test of heavy metals of active ingredients (pig skin, ICP-MS): Cu; details: contaminated pig skin
Protocol: as §1, §2, §3, §4

| Structure (SMILES) | Removal of Heavy metals Cd (%) ([1]; 0.1 wt % aqueous solution) | Removal of Heavy metals Cd (%) ([1]; 0.5 wt % aqueous solution) | Removal of Heavy metals Cd (%) ([1]; 1.0 wt % aqueous solution) | Degree of irritation (human skin; 0.1 wt %) | Grade (human skin; 0.1 wt %) | Test result(number of subject) (+) (human skin; 0.1 wt %) | Test result(number of subject) (++) (human skin; 0.1 wt %) | Test result(number of subject) (±) (human skin; 0.1 wt %) | Test result(number of subject) (−) (human skin; 0.1 wt %) | Degree of irritation (human skin; 0.5 wt %) | Grade (human skin; 0.5 wt %) | Test result(number of subject) (+) (human skin; 0.5 wt %) | Test result(number of subject) (++) (human skin; 0.5 wt %) | Test result(number of subject) (±) (human skin; 0.5 wt %) | Test result(number of subject) (−) (human skin; 0.5 wt %) | Degree of irritation (human skin; 1.0 wt %) | Grade (human skin; 1.0 wt %) | Test result(number of subject) (+) (human skin; 1.0 wt %) | Test result(number of subject) (++) (human skin; 1.0 wt %) | Test result(number of subject) (±) (human skin; 1.0 wt %) | also measured |
| --- | --- | --- | --- | --- | --- | --- | --- | --- | --- | --- | --- | --- | --- | --- | --- | --- | --- | --- | --- | --- | --- |
| O=C(O)CN1CCN(CC(=O)O)CCN(CC(=O)O)CCN(CC(=O)O)CC1 [Embodiment 5, 2,2′,2″,2′″-(1,4,7,10-tetraazacyclododecane-1,4,7,10-tetrayl)tetraacetic acid] | 90.4 | 93.6 | 93.7 | 0 | I (Degree of irritation 0-0.1: Grade I (unstimulated)) | 0 | 0 | 0 | 20 | 0 | I (Degree of irritation 0-0.1: Grade I (unstimulated)) | 0 | 0 | 0 | 20 | 0.05 | I (Degree of irritation 0-0.1: Grade I (unstimulated)) | 0 | 0 | 1 | Test result(number of subject) (−) (human skin; 1.0 wt %): 19; Area (mAU*min) 30 min [2]: 0.179 mAU*min; Area (mAU*min) 180 min [2]: 0 mAU*min; Area (mAU*min) Initial [2]: 0.305 mAU*min; Removal of Heavy metals Pb (%) ([3]; 0.1 wt % aqueous solution): 92.4%; Removal of Heavy metals Pb (%) ([3]; 0.5 wt % aqueous solution): 94.7%; Removal of Heavy metals Pb (%) ([3]; 1.0 wt % aqueous solution): 95.1%; Removal of Heavy metals Cu (%) ([4]; 0.1 wt % aqueous solution): 94.6%; Removal of Heavy metals Cu (%) ([4]; 0.5 wt % aqueous solution): 96.8%; Removal of Heavy metals Cu (%) ([4]; 1.0 wt % aqueous solution): 97.2% |
| O=C(O)c1ccc(N2CCN(c3ccc(C(=O)O)cc3)CCN(c3ccc(C(=O)O)cc3)CCN(c3ccc(C(=O)O)cc3)CC2)cc1 [Embodiment 6, 4,4′,4″,4′″-(1,4,7,10-tetraazacyclododecane-1,4,7,10-tetrayl)tetrabenzoic acid] | 89.2 | 90.9 | 91.6 | 0 | I (Degree of irritation 0-0.1: Grade I (unstimulated)) | 0 | 0 | 0 | 20 | 0 | I (Degree of irritation 0-0.1: Grade I (unstimulated)) | 0 | 0 | 0 | 20 | 0.05 | I (Degree of irritation 0-0.1: Grade I (unstimulated)) | 0 | 0 | 1 | Test result(number of subject) (−) (human skin; 1.0 wt %): 19; Area (mAU*min) 30 min [2]: 0.183 mAU*min; Area (mAU*min) 180 min [2]: 0 mAU*min; Area (mAU*min) Initial [2]: 0.305 mAU*min; Removal of Heavy metals Pb (%) ([3]; 0.1 wt % aqueous solution): 90.2%; Removal of Heavy metals Pb (%) ([3]; 0.5 wt % aqueous solution): 92.8%; Removal of Heavy metals Pb (%) ([3]; 1.0 wt % aqueous solution): 93.2%; Removal of Heavy metals Cu (%) ([4]; 0.1 wt % aqueous solution): 94.1%; Removal of Heavy metals Cu (%) ([4]; 0.5 wt % aqueous solution): 96.3%; Removal of Heavy metals Cu (%) ([4]; 1.0 wt % aqueous solution): 97.0% |
| O=C(O)c1cncc(N2CCN(c3cncc(C(=O)O)c3)CCN(c3cncc(C(=O)O)c3)CCN(c3cncc(C(=O)O)c3)CC2)c1 [Embodiment 7, 5,5′,5″,5′″-(1,4,7,10-tetraazacyclododecane-1,4,7,10-tetrayl)tetranicotinic acid] | 87.9 | 89.4 | 90.7 | 0 | I (Degree of irritation 0-0.1: Grade I (unstimulated)) | 0 | 0 | 0 | 20 | 0 | I (Degree of irritation 0-0.1: Grade I (unstimulated)) | 0 | 0 | 0 | 20 | 0 | I (Degree of irritation 0-0.1: Grade I (unstimulated)) | 0 | 0 | 0 | Test result(number of subject) (−) (human skin; 1.0 wt %): 20; Area (mAU*min) 30 min [2]: 0.181 mAU*min; Area (mAU*min) 180 min [2]: 0 mAU*min; Area (mAU*min) Initial [2]: 0.305 mAU*min; Removal of Heavy metals Pb (%) ([3]; 0.1 wt % aqueous solution): 90.8%; Removal of Heavy metals Pb (%) ([3]; 0.5 wt % aqueous solution): 93.1%; Removal of Heavy metals Pb (%) ([3]; 1.0 wt % aqueous solution): 93.6%; Removal of Heavy metals Cu (%) ([4]; 0.1 wt % aqueous solution): 93.8%; Removal of Heavy metals Cu (%) ([4]; 0.5 wt % aqueous solution): 95.1%; Removal of Heavy metals Cu (%) ([4]; 1.0 wt % aqueous solution): 96.0% |
| O=C(O)c1ccc(N2CCN(c3ccc(C(=O)O)o3)CCN(c3ccc(C(=O)O)o3)CCN(c3ccc(C(=O)O)o3)CC2)o1 [Embodiment 8, 5,5′,5″,5′″-(1,4,7,10-tetraazacyclododecane-1,4,7,10-tetrayl)tetrakis(furan-2-carboxylic acid)] | 90.4 | 91.3 | 93.4 | 0 | I (Degree of irritation 0-0.1: Grade I (unstimulated)) | 0 | 0 | 0 | 20 | 0 | I (Degree of irritation 0-0.1: Grade I (unstimulated)) | 0 | 0 | 0 | 20 | 0.10 | I (Degree of irritation 0-0.1: Grade I (unstimulated)) | 0 | 0 | 2 | Test result(number of subject) (−) (human skin; 1.0 wt %): 18; Area (mAU*min) 30 min [2]: 0.168 mAU*min; Area (mAU*min) 180 min [2]: 0 mAU*min; Area (mAU*min) Initial [2]: 0.305 mAU*min; Removal of Heavy metals Pb (%) ([3]; 0.1 wt % aqueous solution): 91.4%; Removal of Heavy metals Pb (%) ([3]; 0.5 wt % aqueous solution): 93.4%; Removal of Heavy metals Pb (%) ([3]; 1.0 wt % aqueous solution): 94.0%; Removal of Heavy metals Cu (%) ([4]; 0.1 wt % aqueous solution): 94.3%; Removal of Heavy metals Cu (%) ([4]; 0.5 wt % aqueous solution): 96.8%; Removal of Heavy metals Cu (%) ([4]; 1.0 wt % aqueous solution): 97.2% |
| O=C(O)CN1CCCN(CC(=O)O)CCN(CC(=O)O)CCCN(CC(=O)O)CC1 [Embodiment 9, 2,2′,2″,2′″-(1,4,8,11-tetraazacyclotetradecane-1,4,8,11-tetrayl)tetraacetic acid] | 89.1 | 91.3 | 91.9 | 0 | I (Degree of irritation 0-0.1: Grade I (unstimulated)) | 0 | 0 | 0 | 20 | 0 | I (Degree of irritation 0-0.1: Grade I (unstimulated)) | 0 | 0 | 0 | 20 | 0.10 | I (Degree of irritation 0-0.1: Grade I (unstimulated)) | 0 | 0 | 2 | Test result(number of subject) (−) (human skin; 1.0 wt %): 18; Area (mAU*min) 30 min [2]: 0.182 mAU*min; Area (mAU*min) 180 min [2]: 0 mAU*min; Area (mAU*min) Initial [2]: 0.305 mAU*min; Removal of Heavy metals Pb (%) ([3]; 0.1 wt % aqueous solution): 88.9%; Removal of Heavy metals Pb (%) ([3]; 0.5 wt % aqueous solution): 91.0%; Removal of Heavy metals Pb (%) ([3]; 1.0 wt % aqueous solution): 91.4%; Removal of Heavy metals Cu (%) ([4]; 0.1 wt % aqueous solution): 94.3%; Removal of Heavy metals Cu (%) ([4]; 0.5 wt % aqueous solution): 96.9%; Removal of Heavy metals Cu (%) ([4]; 1.0 wt % aqueous solution): 97.3% |
